# Values quoted from earlier work in patent US20160083345A1, “POLYMORPHIC FORMS OF LOMITAPIDE AND ITS SALTS AND PROCESSES FOR THEIR PREPARATION” (CADILA HEALTHCARE LIMITED, priority 2014, published 2016).
# Counter-ions that a name gives are not always drawn. Like-named read-outs stand apart in the source and are kept apart here.
smiles,measurement,setting,value
"O=C(NC1CCN(CCCCC2(C(=O)NCC(F)(F)F)c3ccccc3-c3ccccc32)CC1)c1ccccc1-c1ccc(C(F)(F)F)cc1 [Lomitapide mesylate, N-(2,2,2-trifluoroethyl)-9-[4-[4-[[[4′(trifluoromethyl)[1,1′-biphenyl]-2-yl]carbonyl]amino]-1-piperidinyl]butyl]-9H-fluorene-9carboxamide methanesulfonate]",solubility,1-octanol,sparingly soluble
same,solubility,2-butanol,soluble
same,solubility,2-propanol,sparingly soluble
same,solubility,acetone,freely soluble
same,solubility,acetonitrile,soluble
same,solubility,aqueous solutions of pH 2 to 5,slightly soluble
same,solubility,ethanol,freely soluble
same,solubility,ethyl acetate,slightly soluble
same,solubility,heptane,insoluble
same,solubility,methanol,freely soluble
same,solubility,methylene chloride,soluble
